Consider 8 compounds from ChEMBL document CHEMBL1201862, “PubChem BioAssay data set” (2004).

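Compound exposure: 48 hours, 5 concentrations, 96-well plates. The concentration for 50% growth inhibition is given as GI50.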 The source made the active and inactive calls. No stated cut-off is given here; in the data, active = GI50 up to about 1.1 µM and inactive = higher. Peptide text beside a SMILES is read from it. * marks the point of attachment. Boc = CC(C)(C)OC(=O)*; OBn = c1ccc(CO*)cc1

Some test systems named below: UO-31; UACC-62; MOLT-4; SF-268; M14; U-251; EKVX; ACHN; TK-10; SF-295; CCRF-CEM; HOP-62; HL-60; CAKI-1; NCI-H522; SF-539; RXF 393; MDA-MB-231; NCI/ADR-RES.
Assay in all cases: NCI-60 cell line screen, 48 h

As to `Cc1ccc2c(C)c3ccc4ccccc4c3c[n+]2c1.[O-][Cl+3]([O-])([O-])[O-]`, the GI50 in the assay with UO-31 was 33.6 µM (inactive); with UACC-62, 13.7 µM (inactive); in the assay with MOLT-4, 3.99 µM (inactive); with SF-268 it was 2.57 µM (inactive); in the assay on M14, 17.9 µM (inactive); in the assay on U-251, 5.02 µM (inactive). The GI50 in the assay on EKVX was 13.7 µM (inactive); in the assay with ACHN, 58.7 µM (inactive); with TK-10 it was 53.5 µM (inactive); with SF-295, 23.1 µM (inactive); in the assay on CCRF-CEM, 11.1 µM (inactive); in the assay with HOP-62, 13.8 µM (inactive). Also, the GI50 is 31.6 µM (inactive) in the assay on HL-60; 23.9 µM (inactive) in the assay with CAKI-1; 11.2 µM (inactive) in the assay with NCI-H522; 11.5 µM (inactive) with SF-539; 20.1 µM (inactive) in the assay on RXF 393.

On to `CC1(C)CC(C#Cc2ccccc2)CC(C)(C)N1O`, for which the GI50 with UO-31 was 12.2 µM (inactive); in the assay with UACC-62, 17.2 µM (inactive); in the assay on MOLT-4 it was 46 µM (inactive); with SF-268, 20.7 µM (inactive); with M14, 19.1 µM (inactive); with U-251 it was 23.9 µM (inactive). Moreover, the GI50 is 23.6 µM (inactive) with EKVX; 25.8 µM (inactive) in the assay with ACHN; 20.4 µM (inactive) with TK-10; 15.6 µM (inactive) in the assay on SF-295; 39.8 µM (inactive) in the assay with CCRF-CEM; 16.4 µM (inactive) in the assay on HOP-62. Further, the GI50 was 15.2 µM (inactive) in the assay on MDA-MB-231; 14.8 µM (inactive) in the assay on HL-60; 20.6 µM (inactive) with CAKI-1; 20.6 µM (inactive) with SF-539; 19.5 µM (inactive) in the assay with RXF 393; 23.9 µM (inactive) in the assay with NCI/ADR-RES.

For `CCc1c(Cc2[nH]c(Cc3[nH]c(C=O)c(C)c3CC)c(CC)c2CC)[nH]c(C=O)c1C`, the GI50 in the assay with UO-31, in the assay with UACC-62, in the assay with MOLT-4, in the assay on SF-268, in the assay with M14 and in the assay with U-251 was > 100 µM (inactive) in each case. For the same compound, the GI50 in the assay on EKVX was > 100 µM (inactive); with ACHN it was > 100 µM (inactive); with TK-10, > 100 µM (inactive); with SF-295, > 100 µM (inactive); with CCRF-CEM it was 66.7 µM (inactive); in the assay on HOP-62, > 100 µM (inactive). The GI50 with HL-60 is > 100 µM (inactive); in the assay on CAKI-1 it was > 100 µM (inactive); with NCI-H522, > 100 µM (inactive); in the assay on SF-539 it was > 100 µM (inactive); in the assay on RXF 393 it was 39 µM (inactive).

For `COC(=O)Cc1cc(=O)oc2c1C(=O)CCC2`, the GI50 was 59.2 µM (inactive) in the assay on UO-31; > 100 µM (inactive) in the assay on UACC-62; > 100 µM (inactive) with MOLT-4; > 100 µM (inactive) in the assay on SF-268; > 100 µM (inactive) with M14; > 100 µM (inactive) with U-251. The GI50 with EKVX, in the assay with ACHN, with TK-10, in the assay with SF-295, in the assay with CCRF-CEM and with HOP-62 was > 100 µM (inactive) each time. Besides, the GI50 in the assay with HL-60, in the assay with CAKI-1, in the assay with NCI-H522, in the assay on SF-539 and with RXF 393 was > 100 µM (inactive) throughout.

For the compound `Cc1ccc2c(c1)CC1(Cc3c(C)cccc3C1=O)C2=O` (stereo not drawn), the GI50 was > 100 µM (inactive) in the assay with UO-31; 44.7 µM (inactive) in the assay on UACC-62; > 100 µM (inactive) in the assay on MOLT-4; > 100 µM (inactive) in the assay with SF-268; > 100 µM (inactive) in the assay with M14; 87.5 µM (inactive) with U-251. Also, the GI50 with EKVX is > 100 µM (inactive); in the assay with ACHN, > 100 µM (inactive); with TK-10 it was > 100 µM (inactive); with SF-295, 69.8 µM (inactive); in the assay with CCRF-CEM, > 100 µM (inactive); in the assay with HOP-62, 28.5 µM (inactive). Further, the GI50 in the assay with MDA-MB-231, in the assay on HL-60, in the assay on NCI-H522, in the assay with SF-539, in the assay on RXF 393 and in the assay with NCI/ADR-RES was > 100 µM (inactive) throughout.

`COC1OC(C)C(O)CC1OS(=O)(=O)c1ccc(C)cc1` (stereo not drawn): the GI50 with UO-31, with UACC-62, in the assay on MOLT-4, in the assay on SF-268, with M14 and with U-251 was > 100 µM (inactive) throughout. Also, the GI50 in the assay with EKVX, in the assay on ACHN, with TK-10, in the assay on SF-295, with CCRF-CEM and in the assay on HL-60 was > 100 µM (inactive) in each case. In addition, the GI50 in the assay on CAKI-1, in the assay on NCI-H522, with SF-539 and with RXF 393 was > 100 µM (inactive) each time.

Take `COc1cc(O)c2c(c1)C(=O)C1=C(C2=O)C(O)C[C@@](C)(O)C1` (stereo partly drawn): the GI50 in the assay on UO-31 is 2.67 µM (inactive); with UACC-62, 1.37 µM (inactive); in the assay with MOLT-4, 2.22 µM (inactive); in the assay with SF-268, 2.01 µM (inactive); in the assay on M14, 0.871 µM (active); in the assay with U-251, 2.49 µM (inactive). For the same compound, the GI50 in the assay on EKVX was 3.38 µM (inactive); in the assay on ACHN, 0.684 µM (active); in the assay with TK-10, 1.98 µM (inactive); with SF-295, 2.58 µM (inactive); in the assay on CCRF-CEM, 2.39 µM (inactive); in the assay on HOP-62, 8.71 µM (inactive). The GI50 in the assay with HL-60 was 0.451 µM (active); in the assay with CAKI-1, 1.87 µM (inactive); in the assay on NCI-H522, 0.71 µM (active); in the assay on SF-539, 2.57 µM (inactive); with RXF 393, 1.32 µM (inactive).

As for `CC(NC(=O)C(NC(=O)OC(C)(C)C)C(C)C)C(=O)N1CCCC1C(=O)NCC(=O)NC(C(=O)NCC(=O)OCc1ccccc1)C(C)C` (stereo not drawn) (Boc-VAPGVG-OBn; configuration not given here), the GI50 is > 100 µM (inactive) in the assay on UO-31; 66.4 µM (inactive) with UACC-62; > 10 µM (inactive) in the assay on MOLT-4; > 100 µM (inactive) in the assay on SF-268; > 100 µM (inactive) in the assay on M14; > 100 µM (inactive) in the assay with U-251. In addition, the GI50 with EKVX, with ACHN, with TK-10, in the assay on SF-295, in the assay on CCRF-CEM and in the assay with HOP-62 was > 100 µM (inactive) each time. Also, the GI50 with MDA-MB-231, with HL-60, with CAKI-1, in the assay on NCI-H522, in the assay on SF-539 and in the assay with NCI/ADR-RES was > 100 µM (inactive) throughout.
